Data reported in ChEMBL document CHEMBL1201862, “PubChem BioAssay data set” (2004).
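These data come from cells grown in 96-well plates and exposed to compound for 48 hours at five concentrations. Abbreviation: GI50, concentration required for 50% inhibition of growth.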 The source made the active and inactive calls. No stated cut-off is given here; in the data, active = GI50 up to about 1.1 µM and inactive = higher.

Assays:
Test in all cases: NCI tumour cell line growth inhibition, 48 h
[1] = tested on: SK-MEL-5
[2] = tested on: HCT-15
[3] = tested on: CCRF-CEM
[4] = tested on: UACC-257
[5] = tested on: LOX IMVI
[6] = tested on: 786-0
[7] = tested on: NCI-H522
[8] = tested on: SNB-75
[9] = tested on: HL-60
[10] = tested on: IGROV-1
[11] = tested on: HOP-92
[12] = tested on: OVCAR-4
[13] = tested on: M14
[14] = tested on: UACC-62
[15] = tested on: HOP-62
[16] = tested on: SN12C
[17] = tested on: COLO 205
[18] = tested on: HT-29
[19] = tested on: SF-539
[20] = tested on: UO-31

| SMILES | GI50 [1] | GI50 [2] [µM] | GI50 [3] | GI50 [4] | GI50 [5] | GI50 [6] | GI50 [7] | GI50 [8] | GI50 [9] | GI50 [10] | GI50 [11] | GI50 [12] | GI50 [13] | GI50 [14] | GI50 [15] | GI50 [16] | GI50 [17] | GI50 [18] | GI50 [19] | GI50 [20] |
| --- | --- | --- | --- | --- | --- | --- | --- | --- | --- | --- | --- | --- | --- | --- | --- | --- | --- | --- | --- | --- |
| Cc1cc(O)nc(NNC(C#N)c2ccc(O)cc2)n1 (stereo not given) | > 100 µM (inactive) | > 100 | > 100 µM (inactive) | > 100 µM (inactive) | > 100 µM (inactive) | > 100 µM (inactive) | > 100 µM (inactive) | > 100 µM (inactive) | > 100 µM (inactive) | > 100 µM (inactive) | > 100 µM (inactive) | > 100 µM (inactive) | > 100 µM (inactive) | > 100 µM (inactive) | > 100 µM (inactive) | > 100 µM (inactive) | > 100 µM (inactive) | > 100 µM (inactive) | > 100 µM (inactive) | > 100 µM (inactive) |
| COc1ccc(/C=c2/s/c(=C(\C#N)c3nc4ccccc4[nH]3)n(-c3ccccc3)c2=O)cc1 | > 92.7 µM (inactive) | > 53.6 | > 100 µM (inactive) | > 100 µM (inactive) | 36.9 µM (inactive) | 12.8 µM (inactive) | > 60.3 µM (inactive) | > 26.4 µM (inactive) | > 100 µM (inactive) | > 54.5 µM (inactive) | 12.6 µM (inactive) | 6.92 µM (inactive) | > 56.9 µM (inactive) | > 28.3 µM (inactive) | 17.1 µM (inactive) | > 80.2 µM (inactive) | 36.2 µM (inactive) | 6.12 µM (inactive) | 25.1 µM (inactive) | > 52.6 µM (inactive) |
| CN(C)CCC1(C2=CCCC2)CC/C(=C\c2ccccc2)C1=O (stereo not given) | 14.7 µM (inactive) | 13 | 17.1 µM (inactive) | 15.2 µM (inactive) | 17.1 µM (inactive) | 14.7 µM (inactive) | 14.1 µM (inactive) | 17 µM (inactive) | 11.8 µM (inactive) | 15.5 µM (inactive) | 17.7 µM (inactive) | 16.6 µM (inactive) | 16.4 µM (inactive) | 13.6 µM (inactive) | 16.1 µM (inactive) | 17 µM (inactive) | 14.5 µM (inactive) | 17.1 µM (inactive) | 16.6 µM (inactive) | 16.6 µM (inactive) |
| C=C(Cl)C(Br)(CCl)CCC(Br)C(C)(C)Cl (stereo not given) | 2.47 µM (inactive) | 3.26 | 0.92 µM (active) | 2.67 µM (inactive) | 1.25 µM (inactive) | 1.95 µM (inactive) | 3.42 µM (inactive) | 3.6 µM (inactive) | 2.43 µM (inactive) | 5.82 µM (inactive) | 9.75 µM (inactive) | 8.83 µM (inactive) | 2.91 µM (inactive) | 3.37 µM (inactive) | 2.76 µM (inactive) | 2.84 µM (inactive) | 4.53 µM (inactive) | 2.02 µM (inactive) | 6.95 µM (inactive) | 5.61 µM (inactive) |
| CC(SC1=CC(=O)c2c(O)ccc(O)c2C1=O)C(=O)O (stereo not given) | > 61.5 µM (inactive) | > 37 | 3.08 µM (inactive) | 35.5 µM (inactive) | > 41.2 µM (inactive) | 23.9 µM (inactive) | 1.51 µM (inactive) | > 50.5 µM (inactive) | 13.6 µM (inactive) | > 44.9 µM (inactive) | > 58.5 µM (inactive) | 17 µM (inactive) | 32.1 µM (inactive) | 17.5 µM (inactive) | > 100 µM (inactive) | > 48.2 µM (inactive) | 22.5 µM (inactive) | 41.7 µM (inactive) | > 68.5 µM (inactive) | > 47.3 µM (inactive) |
| O=C(NCCNCCO)N/N=C/c1cccc([N+](=O)[O-])c1 | > 100 µM (inactive) | > 100 | > 100 µM (inactive) | > 100 µM (inactive) | > 100 µM (inactive) | > 100 µM (inactive) | > 100 µM (inactive) | > 100 µM (inactive) | > 100 µM (inactive) | > 100 µM (inactive) | > 100 µM (inactive) | > 100 µM (inactive) | > 100 µM (inactive) | > 100 µM (inactive) | > 100 µM (inactive) | > 100 µM (inactive) | > 100 µM (inactive) | > 100 µM (inactive) | > 100 µM (inactive) | > 100 µM (inactive) |
| O=S(=O)(N/C(=N\O)Nc1ccc(Cl)cc1)c1cc2ccccc2s1 | 16.3 µM (inactive) | 18 | 21.9 µM (inactive) | 22 µM (inactive) | 17.5 µM (inactive) | 18.4 µM (inactive) | 13.8 µM (inactive) | 12.7 µM (inactive) | 11.7 µM (inactive) | 13.5 µM (inactive) | 18.3 µM (inactive) | 14.4 µM (inactive) | 17.9 µM (inactive) | 15.3 µM (inactive) | 17.7 µM (inactive) | 18.6 µM (inactive) | 15.2 µM (inactive) | 19.6 µM (inactive) | 18.5 µM (inactive) | 33.9 µM (inactive) |
